Source: patent US9101577B2, “Analgesic pharmaceutical composition for oral administration” (Warszawski Uniwersytet Medyczny, priority 2011, dated 2015)

Tests used:
Male Wistar rats [1] = experiment: Acute activity after single p.o. administration, paw withdrawal test (Randall and Selitto), % of analgesia; assay type: in vivo, rat; conditions: for analgesic activity / pain threshold when administered alone (morphine study): morphine 15 mg/kg
Method: (§1) Male Wistar rats (250-300 g) were housed in a room maintained at a temperature of 20±2° C. under 12 h-12 h light-dark cycles. The animals had free access to food and water. Experimental groups consisted of six rats.
(§2) Drugs • Morphine at a dose of 15 mg/kg, codeine at a dose of 175 mg/kg, tramadol at a dose of 125 mg/kg and oxycodone at a dose of 5 mg/kg were dissolved in distilled water; • Dihydrocodeine at a dose of 50 mg/kg was suspended in 1% solution of methylcellulose; • Magnesium lactate (in micronized form)—at a dose of 15 mg magnesium ions/kg (150 mg of magnesium lactate/kg) was suspended in 0.5% solution of methylcellulose; • Magnesium lactate in normal (non-micronized) form—at doses of 15 or 30 mg magnesium ions/kg (150 or 300 mg of magnesium lactate/kg, respectively) was suspended in 0.5% solution of methylcellulose; • Magnesium citrate (in micronized and normal form)—at a dose of 15 mg magnesium ions/kg (112 mg of magnesium citrate/kg) was dissolved in distilled water; • Magnesium hydroaspartate (in micronized and normal form)—at a dose of 15 mg magnesium ions/kg (216 mg of magnesium hydroaspartate/kg) was suspended in 0.5% solution of methylcellulose; • Magnesium chloride (in micronized and normal form)—at a dose of 15 mg magnesium ions/kg (59.5 mg of magnesium chloride/kg) was dissolved in distilled water; • Control animals received a 0.5% solution of methylcellulose, a 1% solution of methylcellulose and distilled water, respectively, according to the same time schedule.
Magnesium salts and investigated opioids were administered concomitantly.
The micronized form of magnesium salts used in experiments contains particles of magnesium compounds of size D90<50 μm.
The normal magnesium salts form used in experiments contains particles of sizes commonly available in the market.
Acute activity of investigated drugs was measured in short time periods (from 5 to 300 min) after single administration.
(§3) All drugs were administered per os (p.o.); literally—orally. However, in practice, drugs were administered intragastric via a gastric tube.
(§4) Changes in pain thresholds were determined using a mechanical stimuli—the modification of the classic paw withdrawal test described by Randall and Selitto [1957]. In order to produce mechanical stimulation, progressively increasing pressure was applied to the dorsal surface of the rat's paw using an analgesymeter. The instrument used increased the force on the paw at a rate of 32 grams per second. The nociceptive threshold was defined as force in grams, at which the rat attempted to withdraw its right hindpaw and values of pressure were recorded at this very moment. At least two observers controlled the response.
(§5) Nociceptive thresholds (average of two trials) measured for each animal before single administration of investigated drugs (measurement of acute activity) or in day 0 before the first administration (measurement of prolonged activity) constituted the baseline pain threshold—A. Next, measurements of the withdrawal threshold to mechanical stimuli were performed at 5, 15, 30, 60, 90, 120, 180, 240, 300 min after drug administration (measurements of acute activity) or every day before drug administration (measurements of prolonged activity)—B.
(§6) In all experimental sessions (i.e. every day, each drug investigated) values of thresholds obtained (B) were compared to baseline (A).
(§7) Changes in pain threshold were calculated as a percent of baseline value according to the following formula:
(§8) [formula] • C—% of analgesia; A—pressure (in g), baseline pain threshold; B—pressure (in g) in consecutive measurements.
(§9) Percents of analgesia values calculated as above for individual animals were subsequently used to calculate average values in particular experimental groups and for statistical analysis.
The results are expressed as mean values±standard deviation of the mean (±S.E.M.).

Male Wistar rats [2] = experiment: Prolonged activity on repeated daily p.o. administration (7 or 10 days), paw withdrawal test (Randall and Selitto); assay type: in vivo, rat; conditions: for pain threshold on separate administration, 7 days (morphine study): morphine 15 mg/kg
Method: as §1, §2
Prolonged activity of the investigated drugs was measured the following day after initial administration, but before the next administration as well as after cessation of administration. Drugs were administered for seven consecutive days (administration of morphine, codeine, dihydrocodeine, oxycodone) or for ten days (administration of tramadol).
as §3, §4, §5, §6, §7, §8, §9
The results are expressed as mean values±standard […] of the mean (±S.E.M.). The statistical significance of differences between groups was evaluated by Student's t-test. p≦0.05 was accepted as statistically significant.

[3] = single administration, 15 mg magnesium ions/kg p.o. with dihydrocodeine 50 mg/kg p.o.
[4] = single administration, 15 mg magnesium ions/kg p.o. with morphine 15 mg/kg p.o.
[5] = single administration, 15 mg magnesium ions/kg p.o. with oxycodone 5 mg/kg p.o.
[6] = single separate administration p.o., magnesium salts 15 mg magnesium ions/kg
[7] = 15 mg magnesium ions/kg p.o. with codeine 175 mg/kg p.o., 7 days
[8] = 15 mg magnesium ions/kg p.o. with dihydrocodeine 50 mg/kg p.o., 7 days
[9] = 15 mg magnesium ions/kg p.o. with morphine 15 mg/kg p.o., 7 days
[10] = 15 mg magnesium ions/kg p.o. with tramadol 125 mg/kg p.o., 10 consecutive days
[11] = separate administration p.o., magnesium lactate micronized 15 or normal 30 mg magnesium ions/kg

`CC(O)C(=O)[O-].CC(O)C(=O)[O-].[Mg+2]` (centres unmarked) [micronized magnesium lactate, Magnesium lactate] was tested, and the “effect on analgesic activity of codeine” value (Male Wistar rats [1]; single administration, 15 mg magnesium ions/kg p.o. with codeine 175 mg/kg p.o.) was “significantly enhanced the analgesic activity of codeine”, the “effect on dihydrocodeine analgesia” value (Male Wistar rats [1]; [3]) was “significantly enhanced dihydrocodeine analgesia” and the “time course of activity on dihydrocodeine analgesia” value (Male Wistar rats [1]; [3]) was “gradually increased and reached a maximum between min 45 and 90 of the measurements and then became weaker by min 210”. The “effect on morphine analgesia” value (Male Wistar rats [1]; [4]) was “significantly enhanced morphine analgesia”, the “enhancement of morphine analgesia lasted up to” value (Male Wistar rats [1]; [4]) was 240 min and the “time at which enhancement of morphine analgesia appeared” value (Male Wistar rats [1]; [4]) was 30 min. The “effect on oxycodone analgesia” value (Male Wistar rats [1]; [5]) was “significantly enhanced oxycodone analgesia”, the “time at which activity on oxycodone analgesia appeared” value (Male Wistar rats [1]; [5]) was 5 min and the “time course of activity on oxycodone analgesia” value (Male Wistar rats [1]; [5]) was “maintained at a constant level up to min 30 of the study, then became weaker in min 45 and disappeared in min 60”. For the same compound, the “effect on antinociceptive activity of tramadol” value (Male Wistar rats [1]; single administration, 15 mg magnesium ions/kg p.o. with tramadol 125 mg/kg p.o.) was “increased antynociceptive activity of tramadol”, the “analgesic activity on separate administration (codeine study)” value (Male Wistar rats [1]; single separate administration p.o., codeine 175 mg/kg, magnesium salts 15 mg magnesium ions/kg) was “did not exhibit analgesic activity” and the “analgesic activity / pain perception threshold on separate administration (dihydrocodeine study)” value (Male Wistar rats [1]; single separate administration p.o., dihydrocodeine 50 mg/kg, magnesium salts 15 mg magnesium ions/kg) was “did not exhibit analgesic activity”. For the same compound, the “analgesic activity / pain threshold when administered alone (morphine study)” value (Male Wistar rats [1]; [6]) was “Neither morphine nor magnesium lactate and chloride in micronized or normal form administered alone showed analgesic activity”, the “analgesic activity on separate administration (oxycodone study)” value (Male Wistar rats [1]; single separate administration p.o., oxycodone 5 mg/kg, magnesium salts 15 mg magnesium ions/kg) was “showed no analgesic activity” and the “analgesic activity on separate administration (tramadol study)” value (Male Wistar rats [1]; single separate administration p.o., tramadol 125 mg/kg, magnesium salts 15 mg magnesium ions/kg) was “did not exhibit analgesic activity”. For the same compound, the “course of enhancement of codeine analgesia” value (Male Wistar rats [2]; [7]) was “reached a maximum on days 6 and 7”, the “day on which enhancement of codeine analgesia began” value (Male Wistar rats [2]; [7]) was “fourth” and the “effect on analgesic activity of chronically administered codeine” value (Male Wistar rats [2]; [7]) was “also enhanced analgesic activity of chronically administered codeine”. The “activity after cessation of drug administration (codeine study)” value (Male Wistar rats [2]; 15 mg magnesium ions/kg p.o. with codeine 175 mg/kg p.o., days 8-10) was “rapidly decreased”, the “course of enhancement of dihydrocodeine analgesia” value (Male Wistar rats [2]; [8]) was “reached a maximum on days 6 and 7” and the “day on which enhancement of dihydrocodeine analgesia began” value (Male Wistar rats [2]; [8]) was “fourth”. The “effect on analgesic activity of chronically administered dihydrocodeine” value (Male Wistar rats [2]; [8]) was “gradually enhanced the analgesic activity of chronically administered dihydrocodeine”, the “pain threshold after cessation of drug administration (dihydrocodeine study)” value (Male Wistar rats [2]; 15 mg magnesium ions/kg p.o. with dihydrocodeine 50 mg/kg p.o., days 8-10) was “the pain threshold rapidly reduced to control values” and the “course of enhancement of morphine analgesia” value (Male Wistar rats [2]; [9]) was “grew gradually to 7 day”. The “day on which enhancement of morphine analgesia began” value (Male Wistar rats [2]; [9]) was 3 days, the “effect on analgesic activity of morphine, 7-day administration” value (Male Wistar rats [2]; [9]) was “also enhanced the analgesic activity of morphine” and the “pain threshold after cessation of drug administration (morphine study)” value (Male Wistar rats [2]; 15 mg magnesium ions/kg p.o. with morphine 15 mg/kg p.o., days 8-10) was “gradual return to baseline values”. For the same compound, the “course of enhancement of tramadol analgesia” value (Male Wistar rats [2]; [10]) was “gradually increased (to day 7), and then was maintained to day 10”, the “day on which enhancement of tramadol analgesia began” value (Male Wistar rats [2]; [10]) was “third” and the “effect on long-term analgesic activity of tramadol” value (Male Wistar rats [2]; [10]) was “enhanced the long-term analgesic activity of the examined opioid”. The “pain threshold after removal of the tested substances (tramadol study)” value (Male Wistar rats [2]; 15 mg magnesium ions/kg p.o. with tramadol 125 mg/kg p.o., days 11-12) was “the pain threshold returned to control values by day 11”, the “analgesic activity on separate administration, 7 days (codeine study)” value (Male Wistar rats [2]; separate administration p.o., codeine 175 mg/kg, magnesium lactate micronized 15 or normal 30 mg magnesium ions/kg) was “did not exhibit analgesic activity” and the “pain threshold on separate administration, 7 days (dihydrocodeine study)” value (Male Wistar rats [2]; separate administration p.o., dihydrocodeine 50 mg/kg, magnesium lactate micronized 15 or normal 30 mg magnesium ions/kg) was “did not alter the pain threshold”. For the same compound, the “pain threshold on separate administration, 7 days (morphine study)” value (Male Wistar rats [2]; [11]) was “did not alter the pain threshold”, the “analgesic activity on separate administration, 7 days (oxycodone study)” value (Male Wistar rats [2]; separate administration p.o., oxycodone 5 mg/kg, magnesium lactate micronized 15 or normal 30 mg magnesium ions/kg) was “did not exhibit analgesic activity” and the “pain threshold on separate administration, 10 days (tramadol study)” value (Male Wistar rats [2]; separate administration p.o., tramadol 125 mg/kg, magnesium lactate micronized 15 or normal 30 mg magnesium ions/kg) was “did not alter the pain threshold”.
For `CN1CC[C@]23c4c5ccc(O)c4O[C@H]2[C@@H](O)C=C[C@H]3[C@H]1C5` [morphine, reference compound], the “analgesic activity / pain threshold when administered alone (morphine study)” value (Male Wistar rats [1]; [6]) was “Neither morphine nor magnesium lactate and chloride in micronized or normal form administered alone showed analgesic activity” and the “pain threshold on separate administration, 7 days (morphine study)” value (Male Wistar rats [2]; [11]) was “slightly increased the threshold for mechanical nociceptive stimuli”.
